# Measurements as given in patent publication US20080287299A1, “Use of Imidazole and/or Triazole Derivatives for Combating Plant Pests; as Well as Method for Controlling Diseases/Insects/Mites/Nematodes and Weeds, Particularly Foliar and/or Soil Diseases” (priority 2005, published 2008).
# Test system: Phakopsora pachyrhizi
# Assay: Greenhouse soybean rust test, plants at V5 stage, evaluated every 7 days
# Type: in vivo
# Conditions: for SEVERITY OF RUST (% IFA) 7 DAT / SEVERITY OF RUST (% IFA) 14 DAT / SEVERITY OF RUST (% IFA) 21 DAT / SEVERITY OF RUST (% IFA) 28 DAT: soybean; for effective in controlling soybean rust: from 50 grams of active ingredient per hectare
# Description: Recent tests carried out in greenhouses the laboratory of FMC Quimica do Brasil Ltda. in Uberaba, MG, Brazil, show the highly fungicidal effect of said specific imidazole and/or triazole derivatives in combating diseases of plants, particularly against the attack by the fungus Phakopsora pachyrhizi on soybeans, as described hereinafter.
# Experimental Outline Experimental Outline: entirely made with five repetitions, two plants per repetition, totaling 10 plants.
# a) Preventive Mode: 30 days after plantation of the soybeans in plastic 2-liter pots and with corresponding volumes of soil, the soybean plants were at the V5 stage with six expanded folioles. At this moment, the compounds were sprayed and then, 48 hours afterwards, inoculation of the rust was effected. To effect the inoculation, one prepared a suspension of Phakopsora uredospores at the concentration of 2×10^4 spores/milliliters.
# b) Healing mode: 30 days after plantation of the soybeans in 2-liter plastic pots and with a corresponding volume of soil, the soybean plants were at the V5 stage with six expanded folioles. At this moment, one effected the inoculation of the rust and then, 48 hours afterwards, the compounds were sprayed. To effect the inoculation, one prepared a suspension of Phakopsora uredospores at the concentration of 2×10^4 spores/milliliters.
# Equipment: a manual sprayer commonly used in agriculture with 2-liter capacity.
# Dosages: 50 to 300 grams per hectare of the active compound Itraconazole per liter diluted in water.
# Evaluations of the Effectiveness of the Product: The evaluations were made every 7 days after application of the product, in a total of 4 evaluations. As an evaluation parameter one utilized the severity of the disease (percentage of foliar area attacked by rust) according to FIG. 1).
# Dosages: 50 to 300 grams per hectare of the active compound Voriconazole per liter diluted in water.
smiles,measurement,setting,value
"C[C@@H](c1ncncc1F)[C@](O)(Cn1cncn1)c1ccc(F)cc1F (relative stereo) [Voriconazole, alpha-(2,4-difluorophenyll)-5-fluor-beta-methyl-alpha-(1H-1,2,4-triazol-1-yllmethyl)-(R—(R*,S*))-4-pirimidinetanole]",SEVERITY OF RUST (% IFA) 7 DAT,Table 5: 50 g ac/ha,8 % IFA
same,SEVERITY OF RUST (% IFA) 14 DAT,Table 5: 50 g ac/ha,10 % IFA
same,SEVERITY OF RUST (% IFA) 21 DAT,Table 5: 50 g ac/ha,10 % IFA
same,SEVERITY OF RUST (% IFA) 28 DAT,Table 5: 50 g ac/ha,13 % IFA
same,SEVERITY OF RUST (% IFA) 7 DAT,Table 5: 100 g ac/ha,8 % IFA
same,SEVERITY OF RUST (% IFA) 14 DAT,Table 5: 100 g ac/ha,8 % IFA
same,SEVERITY OF RUST (% IFA) 21 DAT,Table 5: 100 g ac/ha,11 % IFA
same,SEVERITY OF RUST (% IFA) 28 DAT,Table 5: 100 g ac/ha,18 % IFA
same,SEVERITY OF RUST (% IFA) 7 DAT,Table 5: 150 g ac/ha,8 % IFA
same,SEVERITY OF RUST (% IFA) 14 DAT,Table 5: 150 g ac/ha,8 % IFA
same,SEVERITY OF RUST (% IFA) 21 DAT,Table 5: 150 g ac/ha,10 % IFA
same,SEVERITY OF RUST (% IFA) 28 DAT,Table 5: 150 g ac/ha,18 % IFA
same,SEVERITY OF RUST (% IFA) 7 DAT,Table 5: 200 g ac/ha,4 % IFA
same,SEVERITY OF RUST (% IFA) 14 DAT,Table 5: 200 g ac/ha,7 % IFA
same,SEVERITY OF RUST (% IFA) 21 DAT,Table 5: 200 g ac/ha,11 % IFA
same,SEVERITY OF RUST (% IFA) 28 DAT,Table 5: 200 g ac/ha,11 % IFA
same,SEVERITY OF RUST (% IFA) 7 DAT,Table 5: 300 g ac/ha,2 % IFA
same,SEVERITY OF RUST (% IFA) 14 DAT,Table 5: 300 g ac/ha,0 % IFA
same,SEVERITY OF RUST (% IFA) 21 DAT,Table 5: 300 g ac/ha,1 % IFA
same,SEVERITY OF RUST (% IFA) 28 DAT,Table 5: 300 g ac/ha,5 % IFA
same,effective in controlling soybean rust,,effective in controlling soybean rust
"CC[C@@H]([C@H](C)O)n1ncn(-c2ccc(N3CCN(c4ccc(OC[C@@H]5CO[C@](Cn6cncn6)(c6ccc(F)cc6F)C5)cc4)CC3)cc2)c1=O [Posaconazole, 1-((1S,2S)-1-ethyl-2-hydroxypropyl)-4-{4-[4-(4-{[(5S,3R)-5-(2,4-difluorophenyl)-5-(1,2,4-triazolylmethyll)oxolan-3-yl]methoxy}phenyl)pipera-zinyl]phenyl}-1,2,4-triazolin-5-one]",SEVERITY OF RUST (% IFA) 7 DAT,Table 6: 50 g ac/ha,11 % IFA
same,SEVERITY OF RUST (% IFA) 14 DAT,Table 6: 50 g ac/ha,13 % IFA
same,SEVERITY OF RUST (% IFA) 21 DAT,Table 6: 50 g ac/ha,15 % IFA
same,SEVERITY OF RUST (% IFA) 28 DAT,Table 6: 50 g ac/ha,14 % IFA
same,SEVERITY OF RUST (% IFA) 7 DAT,Table 6: 100 g ac/ha,5 % IFA
same,SEVERITY OF RUST (% IFA) 14 DAT,Table 6: 100 g ac/ha,8 % IFA
same,SEVERITY OF RUST (% IFA) 21 DAT,Table 6: 100 g ac/ha,12 % IFA
same,SEVERITY OF RUST (% IFA) 28 DAT,Table 6: 100 g ac/ha,13 % IFA
same,SEVERITY OF RUST (% IFA) 7 DAT,Table 6: 150 g ac/ha,0 % IFA
same,SEVERITY OF RUST (% IFA) 14 DAT,Table 6: 150 g ac/ha,6 % IFA
same,SEVERITY OF RUST (% IFA) 21 DAT,Table 6: 150 g ac/ha,9 % IFA
same,SEVERITY OF RUST (% IFA) 28 DAT,Table 6: 150 g ac/ha,12 % IFA
same,SEVERITY OF RUST (% IFA) 7 DAT,Table 6: 200 g ac/ha,3 % IFA
same,SEVERITY OF RUST (% IFA) 14 DAT,Table 6: 200 g ac/ha,0 % IFA
same,SEVERITY OF RUST (% IFA) 21 DAT,Table 6: 200 g ac/ha,6 % IFA
same,SEVERITY OF RUST (% IFA) 28 DAT,Table 6: 200 g ac/ha,9 % IFA
same,SEVERITY OF RUST (% IFA) 7 DAT,Table 6: 300 g ac/ha,0 % IFA
same,SEVERITY OF RUST (% IFA) 14 DAT,Table 6: 300 g ac/ha,0 % IFA
same,SEVERITY OF RUST (% IFA) 21 DAT,Table 6: 300 g ac/ha,3 % IFA
same,SEVERITY OF RUST (% IFA) 28 DAT,Table 6: 300 g ac/ha,7 % IFA
same,effective in controlling soybean rust,,effective in controlling soybean rust
